Among the data in PubChem BioAssay (NCI) are GI50 and TGI values, retold here.

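Interpolation was linear, between the two tested concentrations surrounding the appropriate level; five concentrations were tested over 48 hours in 96-well plates. GI50 is the concentration that inhibits growth by half. At the TGI there is no net growth.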 Bounds are passed on as bounds.

Some test systems named below: SR leukemia; ACHN renal; M14 melanoma; T-47D breast; SK-OV-3 ovarian; CAKI-1 renal; PC-3 prostate; MOLT-4 leukemia; KM12 colon; SN12C renal.
Common to all, as to experiment: growth of human tumour cells (NCI), 48 h

Turning to `O=C(Nc1cccc(-c2ccc(Cl)c(C(F)(F)F)c2)c1)C1CCN(Cc2cccc3cccnc23)CC1`, the GI50 was 1520 nM in the experiment with SR leukemia; 1760 nM in the experiment with ACHN renal; 1640 nM with M14 melanoma; 1610 nM in the experiment on T-47D breast; 1760 nM in the experiment on SK-OV-3 ovarian; 1610 nM in the experiment on CAKI-1 renal. Further, the GI50 is 1410 nM in the experiment on PC-3 prostate, 1790 nM in the experiment with MOLT-4 leukemia, 1800 nM with KM12 colon and 1600 nM in the experiment on SN12C renal. For the same compound, the TGI in the experiment on SR leukemia amounted to 4490 nM; in the experiment on ACHN renal it was 3140 nM; in the experiment on M14 melanoma, 3160 nM; with T-47D breast, 3600 nM; with SK-OV-3 ovarian, 3370 nM; with CAKI-1 renal, 2970 nM. The TGI in the experiment with PC-3 prostate stood at 2930 nM; in the experiment with MOLT-4 leukemia, 4520 nM; in the experiment with KM12 colon, 3430 nM; with SN12C renal, 3030 nM.

Consider `[N-]=[N+]=NCCCn1c2c(c3ccc([N+](=O)[O-])cc3c1=O)C(=O)c1cc(F)ccc1-2`, for which the GI50 with SR leukemia is 113 nM; in the experiment on ACHN renal, 269 nM; in the experiment with M14 melanoma, 1130 nM; in the experiment on T-47D breast, 295 nM; in the experiment on SK-OV-3 ovarian it was 2820 nM; in the experiment on CAKI-1 renal, 288 nM. Further, the GI50 with PC-3 prostate is 1250 nM; in the experiment with MOLT-4 leukemia it was 245 nM; in the experiment on KM12 colon, 2130 nM; in the experiment with SN12C renal it was 703 nM. In addition, the TGI with SR leukemia was 2860 nM; in the experiment on ACHN renal, 1550 nM; in the experiment on M14 melanoma it was 11100 nM; in the experiment with T-47D breast it was 3080 nM; with SK-OV-3 ovarian, 19300 nM; with CAKI-1 renal, 4680 nM. In addition, the TGI was 43200 nM in the experiment with PC-3 prostate, 2700 nM with MOLT-4 leukemia and greater than 26200 nM with KM12 colon.

As for `O=C(N/N=C/c1ccc(O)cc1O)c1cccc(Nc2ccnc(C(F)(F)F)c2)c1`, the GI50 was 290 nM in the experiment on SR leukemia; 1250 nM in the experiment with ACHN renal; 925 nM in the experiment with M14 melanoma; 660 nM with T-47D breast; 1220 nM in the experiment with SK-OV-3 ovarian; 1990 nM in the experiment with CAKI-1 renal. In addition, the GI50 in the experiment with PC-3 prostate was 3010 nM; in the experiment on MOLT-4 leukemia, 491 nM; in the experiment on KM12 colon, 2730 nM; in the experiment on SN12C renal, 2010 nM. Further, the TGI stood at 6340 nM in the experiment on SR leukemia; 29600 nM with ACHN renal; 8500 nM in the experiment on M14 melanoma; 15600 nM with T-47D breast; 18300 nM in the experiment on SK-OV-3 ovarian; 22500 nM in the experiment with CAKI-1 renal. The TGI with PC-3 prostate stood at 34200 nM; in the experiment on MOLT-4 leukemia, 4560 nM; with KM12 colon, 16200 nM; in the experiment with SN12C renal it was 26100 nM.

For `Oc1ccc(C2c3ccccc3Oc3ccccc32)c2cccnc12`, the GI50 was 1970 nM in the experiment with SR leukemia; 845 nM in the experiment on ACHN renal; 1340 nM with M14 melanoma; 2950 nM in the experiment on T-47D breast; 1750 nM in the experiment with SK-OV-3 ovarian; 568 nM in the experiment on CAKI-1 renal. Further, the GI50 with PC-3 prostate is 1900 nM; in the experiment with MOLT-4 leukemia, 1960 nM; in the experiment with KM12 colon it was 1710 nM; in the experiment with SN12C renal it was 1650 nM. Besides, the TGI is greater than 100000 nM in the experiment on SR leukemia; 9580 nM in the experiment with ACHN renal; 4210 nM in the experiment on M14 melanoma; greater than 100000 nM in the experiment on T-47D breast; greater than 100000 nM with SK-OV-3 ovarian; greater than 100000 nM with CAKI-1 renal. Also, the TGI in the experiment on PC-3 prostate, in the experiment with MOLT-4 leukemia, with KM12 colon and with SN12C renal was greater than 100000 nM in each case.

For the compound `C/C(=C\c1cc(C(F)(F)F)n(-c2ccc(N)cc2)n1)[C@@H]1C[C@@H]2O[C@]2(C)CCC[C@H](C)[C@H](O)[C@@H](C)C(=O)C(C)(C)[C@@H](O)CC(=O)O1`, the GI50 is 22.5 nM with SR leukemia; 82.2 nM in the experiment with ACHN renal; 16.6 nM in the experiment with M14 melanoma; 54.2 nM with T-47D breast; 57.5 nM in the experiment with SK-OV-3 ovarian; 221 nM in the experiment on CAKI-1 renal. For the same compound, the GI50 in the experiment on PC-3 prostate was 29.7 nM; in the experiment on MOLT-4 leukemia, 51.5 nM; in the experiment on KM12 colon, 5.22 nM; with SN12C renal, 396 nM. Moreover, the TGI in the experiment with SR leukemia is 2180 nM; with ACHN renal, greater than 11100 nM; in the experiment with M14 melanoma, 96 nM; in the experiment on T-47D breast it was greater than 11100 nM; with SK-OV-3 ovarian, greater than 11100 nM; in the experiment on CAKI-1 renal it was greater than 11100 nM. For the same compound, the TGI in the experiment with PC-3 prostate, in the experiment with MOLT-4 leukemia, with KM12 colon and with SN12C renal was greater than 11100 nM throughout.

Take `O=C1/C(=C/c2ccc(Cl)cc2)CCC/C1=C\c1ccc(Cl)cc1`: the GI50 with SR leukemia is 2770 nM; with ACHN renal it was 6830 nM; with M14 melanoma, 3040 nM; in the experiment on T-47D breast, 8760 nM; with SK-OV-3 ovarian, 9840 nM; with CAKI-1 renal, greater than 100000 nM. In addition, the GI50 is 5460 nM in the experiment on PC-3 prostate, 4090 nM with MOLT-4 leukemia, 1900 nM with KM12 colon and 6060 nM in the experiment on SN12C renal. Also, the TGI is greater than 100000 nM in the experiment with SR leukemia; greater than 100000 nM in the experiment on ACHN renal; 8700 nM in the experiment on M14 melanoma; greater than 100000 nM in the experiment with T-47D breast; greater than 100000 nM in the experiment on SK-OV-3 ovarian; greater than 100000 nM in the experiment on CAKI-1 renal. For the same compound, the TGI with PC-3 prostate was greater than 100000 nM; in the experiment with MOLT-4 leukemia it was greater than 100000 nM; in the experiment with KM12 colon, 3750 nM; in the experiment on SN12C renal it was greater than 100000 nM.

With `CCc1ccc(C(=Nc2ccc(N(C)C(=O)CN3CCN(C)CC3)cc2)c2c(O)[nH]c3ccc(C(=O)OC)cc23)cc1`, the GI50 in the experiment with SR leukemia was 164 nM; in the experiment with ACHN renal, 332 nM; in the experiment with M14 melanoma, 368 nM; with T-47D breast, 870 nM; in the experiment on SK-OV-3 ovarian, 245 nM; in the experiment with CAKI-1 renal, 135 nM. The GI50 with PC-3 prostate was 292 nM; in the experiment on MOLT-4 leukemia, 176 nM; with KM12 colon, 38.7 nM; in the experiment with SN12C renal it was 223 nM. The TGI in the experiment on SR leukemia turned out to be 835 nM; with ACHN renal it was 1430 nM; with M14 melanoma it was 1690 nM; in the experiment on T-47D breast, 2680 nM; in the experiment with SK-OV-3 ovarian it was 1230 nM; with CAKI-1 renal, 1480 nM. The TGI worked out at 1610 nM in the experiment with PC-3 prostate, 908 nM with MOLT-4 leukemia, 1400 nM with KM12 colon and 1610 nM with SN12C renal.
